The target of test [1] is T1, indoleamine 2,3-dioxygenases 2 (IDO2) (Homo sapiens, UniProt Q6ZQW0).
T1 construct: purchased BPS Bioscience, Inc. (San Diego, CA, USA)
T1 sequence (Q6ZQW0 1-407): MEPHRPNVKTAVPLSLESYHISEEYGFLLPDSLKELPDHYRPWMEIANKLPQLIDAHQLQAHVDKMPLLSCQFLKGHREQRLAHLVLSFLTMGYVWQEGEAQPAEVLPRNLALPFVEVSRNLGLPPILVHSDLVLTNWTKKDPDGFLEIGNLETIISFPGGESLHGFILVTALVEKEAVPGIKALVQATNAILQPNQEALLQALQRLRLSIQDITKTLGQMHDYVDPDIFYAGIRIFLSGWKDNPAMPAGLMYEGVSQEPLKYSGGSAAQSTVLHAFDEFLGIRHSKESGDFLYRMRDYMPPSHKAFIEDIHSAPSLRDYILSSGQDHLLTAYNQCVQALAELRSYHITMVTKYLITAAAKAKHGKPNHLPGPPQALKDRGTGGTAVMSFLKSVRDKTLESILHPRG
Kind of test: Universal IDO1/IDO2/TDO Inhibitor Screening Assay Kit, IDO2. The format is biochemical. As to conditions: for inhibition at 100 µg/mL: read-out: Inhibition (%) IDO2. The method, then:
This colorimetric assay is based on the measurement of the ability of IDO1, IDO2 and TDO to convert L-tryptophan into N-formylkynurenine (NFK). The experiments were performed according to the manufacturer’s guidelines. The final concentration of the compounds and extracts in the reaction mixture was 100 µg/mL. The amount of NFK was measured spectrophotometrically at 320 nm using an Epoch BioTek microplate reader (BioTek Instruments, Inc., Winooski, VT, USA). The samples were run in triplicate and the results were expressed as mean ± SEM.

Test [2] has as its target T2, glutathione peroxidase (GPx) (Bos taurus, UniProt P00435).
T2 construct: purchased Sigma G6137
T2 sequence (P00435 1-205): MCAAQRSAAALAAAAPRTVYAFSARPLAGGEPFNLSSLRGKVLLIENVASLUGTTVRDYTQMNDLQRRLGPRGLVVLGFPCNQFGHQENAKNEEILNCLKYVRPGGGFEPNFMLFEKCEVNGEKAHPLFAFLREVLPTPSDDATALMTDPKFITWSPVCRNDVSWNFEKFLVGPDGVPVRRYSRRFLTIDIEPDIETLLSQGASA
The experiment in a line: Effect on glutathione peroxidase activity. The format is biochemical. Particulars: for inhibition at 243.9 µg/mL: read-out: GPx Inhibition under Reaction Conditions (%). As to the method: Sample (20 µL, 5 mg/mL of pure DMSO) was mixed with 8 μL of EDTA solution, 10 μL of glutathione reductase (0.2 U Sigma G3664), 4 μL of GSH solution, 10 μL of glutathione peroxidase (0.04 U Sigma G6137), 22 μL of H2O2 and 332 μL of 50 mM sodium phosphate, pH 7.0). To start the reaction, 4 μL of NADPH solution (N5130) was added and the decrease in the absorbance (340 nm) was read after 10 min of incubation at 25 °C. All solutions were prepared in 50 mM buffer and concentrations of reagents in the final mixture were as follows: 1mM EDTA, 0.2 U glutathione reductase, 2 mM GSH, 0.04 U glutathione peroxidase, 1.5 mM H2O2 and 0.8 mM NADPH. Blank sample was prepared with buffer instead of the studied sample and background was measured (mixture containing studied sample and buffer only). One unit of enzyme activity was defined as nMol of NADPH consumed/min·mL sample, in comparison with nMol of NADPH consumed/min in blank (reagent) sample [76].

Test [3] addresses T3, indoleamine 2,3-dioxygenases 1 (IDO1) (Homo sapiens, UniProt P14902).
T3 construct: purchased BPS Bioscience, Inc. (San Diego, CA, USA)
Kind of test: Universal IDO1/IDO2/TDO Inhibitor Screening Assay Kit, IDO1. The format is biochemical. Particulars: ± SEM, three measurements.

Test [4] in a line: DPPH radical scavenging assay. Particulars: highest concentration 750.0 µg/mL for substances, 2500.0 µg/mL for extracts; ± SEM, n = 3.
Test [5] has as its target T4, glutathione reductase (GR) (Saccharomyces cerevisiae, UniProt P41921).
T4 construct: purchased Sigma Aldrich G3664
Kind of test: Effect on glutathione reductase activity. As to GR Inhibition under Reaction Conditions (%): key: -: not active. As to conditions: 444.4 μg/mL in the reaction mixture. The format is biochemical. As to the method: Sample (20 µL, 5 mg/mL of pure DMSO) was mixed with 10 μL of EDTA solution and 12 μL of GSSG solution and incubated for 5 min at 25 °C; 4 μL of NADPH solution and was then added (all reagents were dissolved in […] sodium phosphate buffer, pH 7.6), and the initial absorbance (340 nm) was recorded. The reaction was then started by addition of 2 U glutathione reductase (2 μL, Sigma Aldrich no G3664), 177 μL of […] sodium phosphate buffer, and the absorbance was recorded after 5 min of incubation at 25 °C. Concentrations of reagents in the final mixture ([…]) were as follows: 0.5 mM EDTA, 10 mM GSSG and 10 mM NADPH. Blank sample was prepared with buffer instead of the sample and background was measured (mixture containing studied sample and buffer only). One unit of enzyme activity has been defined as nMol of NADPH consumed/min·mL sample, in comparison with nMol of NADPH consumed/min in blank (reagent) sample [75].

Where [6] appears, read: 243.9 μg/mL in the reaction mixture.
[7] abbreviates: 100 µg/mL, read-out: Inhibition (%) IDO1.

“Also recorded” adds a separate entry of the source. Read-outs that look alike come from different tables or passages of the source. Where only a bound is given, the exact number is not on record here.

T4 sequence (P41921 17-483): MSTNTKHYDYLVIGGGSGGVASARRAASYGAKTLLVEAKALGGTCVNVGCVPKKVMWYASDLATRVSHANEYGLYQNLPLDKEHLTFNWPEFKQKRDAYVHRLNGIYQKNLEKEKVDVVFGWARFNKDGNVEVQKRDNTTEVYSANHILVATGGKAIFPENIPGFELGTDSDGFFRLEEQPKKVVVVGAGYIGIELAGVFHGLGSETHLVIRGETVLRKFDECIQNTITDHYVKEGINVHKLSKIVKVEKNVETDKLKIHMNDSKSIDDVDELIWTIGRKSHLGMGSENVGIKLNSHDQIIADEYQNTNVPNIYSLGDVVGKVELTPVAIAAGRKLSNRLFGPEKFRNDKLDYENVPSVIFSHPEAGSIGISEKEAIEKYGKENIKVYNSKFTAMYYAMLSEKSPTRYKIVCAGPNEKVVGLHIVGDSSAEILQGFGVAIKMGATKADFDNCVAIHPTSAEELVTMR
T3 sequence (P14902 whole entry, species assumed): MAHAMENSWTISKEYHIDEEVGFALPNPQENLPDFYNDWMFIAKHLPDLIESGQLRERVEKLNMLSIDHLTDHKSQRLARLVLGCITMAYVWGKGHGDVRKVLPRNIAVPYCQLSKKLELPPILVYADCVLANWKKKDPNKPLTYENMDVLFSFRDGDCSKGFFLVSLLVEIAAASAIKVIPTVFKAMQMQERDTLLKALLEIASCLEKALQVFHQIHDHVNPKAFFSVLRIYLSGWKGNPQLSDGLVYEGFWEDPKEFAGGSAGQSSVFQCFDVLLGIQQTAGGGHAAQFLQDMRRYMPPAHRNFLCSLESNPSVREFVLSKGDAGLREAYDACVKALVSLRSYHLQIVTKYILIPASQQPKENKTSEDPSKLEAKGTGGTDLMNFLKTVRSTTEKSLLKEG

For `Cc1cc(O)c(C=O)c2c1C(=O)Oc1c(CO)c(O)c3c(c1O2)C(O)OC3=O` (stereo not shown) [Salazinic acid, salazinic acid], the “Inhibition (%) IDO2” value in test [1] (100 µg/mL) was “did not exhibit any inhibition effect”. The inhibition at 100 µg/mL in test [1] (100 µg/mL) and in test [3] (setting [7]) was below 10% in each case. Further, the “GPx Inhibition under Reaction Conditions (%)” value in test [2] (setting [6]) was “-”. In addition, in test [3] (100 µg/mL), the “Inhibition (%) IDO1” value is “did not exhibit any inhibition effect; also recorded: not active”. In addition, the “DPPH IC50” value in test [4] was above 750.0 µg/mL. Besides, the “GR Inhibition under Reaction Conditions (%)” value in test [5] was “-”.
Take `CC(=O)C1=C(O)C=C2Oc3c(C(C)=O)c(O)c(C)c(O)c3C2(C)C1=O` (single isomer, unassigned; (-)) [(−)-Usnic acid, (−)-usnic acid]: the inhibition at 100 µg/mL in test [1] was below 10%; in test [3] (read-out: Inhibition (%) IDO1, 100 µg/mL) it was 21.6 ± 0.85%. Further, in test [2] (setting [6]), the “GPx Inhibitory Activity (nMol Depleted NADPH/min Incubation)” value is 27.3 ± 1.3 nMol Depleted NADPH/min Incubation. Besides, the inhibition at 243.9 µg/mL in test [2] is 13.7 ± 2.3%. Further, in test [3] (100 µg/mL), the “Inhibition (%) IDO1” value was 21.6 ± 0.9%. In addition, the “DPPH IC50” value in test [4] is on record as above 750.0 µg/mL. Also, in test [5], the “GR Inhibitory Activity (nMol Depleted NADPH/min Incubation)” value was 710.2 ± 42.3 nMol Depleted NADPH/min Incubation. In addition, the inhibition at 444.4 µg/mL in test [5] (read-out: GR Inhibition under Reaction Conditions (%)) was 18.2 ± 2.2%.
Regarding `COc1cc(C)c(C(=O)Oc2cc(C)c(C(=O)O)c(O)c2)c(O)c1` [Evernic acid, evernic acid], the inhibition at 100 µg/mL in test [1] (100 µg/mL) was below 10%. In addition, in test [2] (setting [6]), the “GPx Inhibitory Activity (nMol Depleted NADPH/min Incubation)” value is on record as 39.9 ± 1.0 nMol Depleted NADPH/min Incubation and the inhibition at 243.9 µg/mL was 20 ± 2.1%. The “Inhibition (%) IDO1” value in test [3] (100 µg/mL) was 32.8 ± 1.9%. In addition, the inhibition at 100 µg/mL in test [3] (setting [7]) stood at 32.8 ± 1.93%. Besides, the “DPPH IC50” value in test [4] is recorded as above 750.0 µg/mL. The “GR Inhibition under Reaction Conditions (%)” value in test [5] was “-”.

The values above are taken from paper PMC8704315, “Lichen-Derived Compounds and Extracts as Biologically Active Substances with Anticancer and Neuroprotective Properties” (Pharmaceuticals, 2021).
